Measured values from patent US11352604B2, “Method of making cardiomyocytes from human pluripotent cells” (Wisconsin Alumni Research Foundation, priority 2016, dated 2022).

Key:
Assay type in all cases: cell-based, human
[1] = test system: day 5 cardiac progenitors; assay: RNA-seq differential gene expression, day 5 pI:C-primed vs untreated cardiac progenitors
Description: (§1) Day-5 cells from d3-5 untreated, TGFβ-treated, and pI:C-treated progenitors from the 19-9-11 iPS cell line were separately prepared as above for cell dissociation of progenitors from three different wells of each condition (for 9 total sequencing samples) and isolated as described above for RNA for RT-qPCR. rRNA-reduced Illumina TruSeq™ Stranded total RNA libraries were prepared and 1×100 bp single end sequencing was performed. To map and annotate RNA-seg data, STAR and HTSeq were used, respectively (Anders et al., 2015; Dobin and Gingeras, 2015). Annotated transcript counts were further processed with DeSEq2 for differential gene expression analysis (Love et al., 2014). Gene neighborhood analysis was performed with NEST (Jiang et al., 2015).

hPSC-CMs = assay: Flow cytometry of differentiated cells (cTnT, MLC2v)
Description: Flow cytometry for internal antigens was done on dissociated cells using the same blocking, washing, secondary antibodies, and buffers as internal antigen immunofluorescence described above using mlc2v (proteintech, 1:100) and cardiac troponin T (Thermo Fisher Scientific, 1:200) in the 19-9-11 iPS cell line. Between washes and staining steps, dissociated cells were pelleted at 1,100 g for 5 minutes. Blocking and antibody staining steps were done in a volume of 100 μL, and washing steps in 1 mL in Eppendorf™ tubes.
Flow cytometry for live cell surface antigens was done on dissociated cells of the 19-9-11 iPS cell line with Thy1 biotin (1:200 Biolegend, with Life Technologies streptavidin direct conjugate at 1:1000) and SIRPα (1:200, Biolegend) in K20 and then analyzed at the UWCCC Flow Cytometry Laboratory using a BD LSRII Fortessa flow cytometer. For progenitor flow experiments, cells were dissociated as above for progenitor dissociation, centrifuged at 200×g, subjected to FACS to concentrate cells, and resuspended in 100 μL, of K2 media+rockI/Jag1 PE, BD Biosciences (1:20); Notch2 APC R&D Biosystems (1:10) and analyzed on either a BD FACSariaII cell sorter or BD LSRII Fortessa flow cytometer.

[2] = test system: day 5 cardiac progenitor cells; assay: Propidium iodide cell cycle flow cytometry; settings: day 5 cardiac progenitor cells
Description: Propidium iodide staining was performed on ethanol-fixed cells of the 19-9-11 iPS cell line with a low flow rate and linear mode fluorescence according to a previously published protocol (Darzynkiewicz and Juan, 2001).

[3] = test system: day 5 cardiac progenitors; assay: Gene ontology / KEGG pathway analysis of pI:C up- and downregulated RNA-seq genes; settings: pI:C top upregulated GO terms
Description: as §1

[4] = day 5 progenitors, out of ~10,500 genes detected
[5] = KEGG_PATHWAY hsa03030:DNA replication
[6] = KEGG_PATHWAY hsa03430:Mismatch repair
[7] = KEGG_PATHWAY hsa03460:Fanconi anemia pathway
[8] = KEGG_PATHWAY hsa04110:Cell cycle
[9] = KEGG_PATHWAY hsa05034:Alcoholism
[10] = KEGG_PATHWAY hsa05203:Viral carcinogenesis
[11] = KEGG_PATHWAY hsa05322:Systemic lupus erythematosus

In the case of polyinosinic-polycytidylic acid [pI:C], the “number of genes significantly downregulated” value [1, 4] is reported as 912 genes, the “number of genes significantly upregulated” value [1, 4] is reported as 514 genes and the log2FoldChange ([1]; gene ACTN3) is reported as 0.6193. It also gave a log2FoldChange ([1]; gene ADAMTS18) of −1.365, a log2FoldChange ([1]; gene ADCY5) of 0.9552 and a log2FoldChange ([1]; gene ADCY8) of 0.6342. For the same substance, the log2FoldChange ([1]; gene ALDH1A2) was 1.067, the log2FoldChange ([1]; gene ANKRD18A) was 1.148 and the log2FoldChange ([1]; gene AQP3) was 0.8778. It also gave a log2FoldChange ([1]; gene ARL15) of 0.6459, a log2FoldChange ([1]; gene ARSI) of 0.6043 and a log2FoldChange ([1]; gene ATP8B4) of −1.545. For the same substance, the log2FoldChange ([1]; gene BAI2) was 0.6046, the log2FoldChange ([1]; gene C20orf103) was 0.9674 and the log2FoldChange ([1]; gene CD82) was 1.288. For the same substance, the log2FoldChange ([1]; gene CDC25B) was 0.6173, the log2FoldChange ([1]; gene CHRNA3) was 0.6865 and the log2FoldChange ([1]; gene CHRNB4) was 0.6085. The log2FoldChange ([1]; gene CNTFR) was 0.8038, the log2FoldChange ([1]; gene COL2A1) was 0.9666 and the log2FoldChange ([1]; gene COL19A1) was −0.827. It also gave a log2FoldChange ([1]; gene CRNDE) of 0.7347, a log2FoldChange ([1]; gene CTNNA2) of 0.8199 and a log2FoldChange ([1]; gene DKFZp686D0853) of 0.782. For the same substance, the log2FoldChange ([1]; gene DKK1) was 0.8084, the log2FoldChange ([1]; gene DLL3) was 0.7285 and the log2FoldChange ([1]; gene DPYSL5) was 0.6254. The log2FoldChange ([1]; gene DUSP4) was −1.302, the log2FoldChange ([1]; gene EPHB3) was 0.6122 and the log2FoldChange ([1]; gene ERBB4) was −0.836. The log2FoldChange ([1]; gene EYA1) was 0.927, the log2FoldChange ([1]; gene FAM98B) was 1.008 and the log2FoldChange ([1]; gene FHDC1) was 0.6831. For the same substance, the log2FoldChange ([1]; gene FOXC1) was 0.9077, the log2FoldChange ([1]; gene FOXC2) was 0.8203 and the log2FoldChange ([1]; gene FOXL1) was 1.223. The log2FoldChange ([1]; gene GJA4) was −0.828, the log2FoldChange ([1]; gene GPC3) was 0.6647 and the log2FoldChange ([1]; gene GPR55) was −1.691. The log2FoldChange ([1]; gene HAND1) was −1.326, the log2FoldChange ([1]; gene HAPLN3) was 0.8468 and the log2FoldChange ([1]; gene HEY1) was 0.6706. The log2FoldChange ([1]; gene HLA-DQA2) was 0.881, the log2FoldChange ([1]; gene IFI16) was 1.021 and the log2FoldChange ([1]; gene IP6K3) was 0.6953. For the same substance, the log2FoldChange ([1]; gene IRX3) was 0.7452, the log2FoldChange ([1]; gene IRX5) was 0.9174 and the log2FoldChange ([1]; gene JAG1) was 1.453. The log2FoldChange ([1]; gene KCNH7) was 0.8627, the log2FoldChange ([1]; gene KCNJ16) was −1.26 and the log2FoldChange ([1]; gene KIAA0319) was 0.6142. For the same substance, the log2FoldChange ([1]; gene KIAA1324) was 0.914, the log2FoldChange ([1]; gene LIX1) was 0.6361 and the log2FoldChange ([1]; gene MMP16) was 0.9772. For the same substance, the log2FoldChange ([1]; gene MN1) was 0.8939, the log2FoldChange ([1]; gene MT1X) was 0.7867 and the log2FoldChange ([1]; gene MXRA5) was −1.313. The log2FoldChange ([1]; gene MYO7A) was 0.815, the log2FoldChange ([1]; gene NEFL) was 0.6647 and the log2FoldChange ([1]; gene NELL2) was 0.6696. For the same substance, the log2FoldChange ([1]; gene NETO1) was 0.918, the log2FoldChange ([1]; gene NFKBIZ) was 0.7246 and the log2FoldChange ([1]; gene NKX3-1) was 0.9735. The log2FoldChange ([1]; gene NPY) was 1.254, the log2FoldChange ([1]; gene NR2F1) was 0.7356 and the log2FoldChange ([1]; gene NRCAM) was −1.533. The log2FoldChange ([1]; gene NRXN1) was 0.724, the log2FoldChange ([1]; gene PANX2) was 1.107 and the log2FoldChange ([1]; gene PAPPA) was 0.9808. The log2FoldChange ([1]; gene PDE1B) was 0.9995, the log2FoldChange ([1]; gene PDGFD) was 0.6619 and the log2FoldChange ([1]; gene PPFIA2) was 0.8189. It also gave a log2FoldChange ([1]; gene PPFIBP2) of −0.835, a log2FoldChange ([1]; gene PPM1J) of 0.6364 and a log2FoldChange ([1]; gene PPP1R1A) of 1.171. The log2FoldChange ([1]; gene PRSS12) was 0.817, the log2FoldChange ([1]; gene PRSS23) was 0.9765 and the log2FoldChange ([1]; gene PTN) was 0.7536. The log2FoldChange ([1]; gene PTPN12) was 0.7631, the log2FoldChange ([1]; gene RARB) was 0.9291 and the log2FoldChange ([1]; gene RASSF10) was −1.321. It also gave a log2FoldChange ([1]; gene RERG) of 0.6913, a log2FoldChange ([1]; gene RHBDL3) of 0.7861 and a log2FoldChange ([1]; gene RND3) of 0.6053. For the same substance, the log2FoldChange ([1]; gene ROBO3) was 0.6174, the log2FoldChange ([1]; gene SCGB1A1) was 0.7028 and the log2FoldChange ([1]; gene SIX1) was 1.397. The log2FoldChange ([1]; gene SLC24A3) was 0.7397, the log2FoldChange ([1]; gene SLC28A2) was −1.472 and the log2FoldChange ([1]; gene SPOCK3) was 0.6961. For the same substance, the log2FoldChange ([1]; gene STAR) was 0.7806, the log2FoldChange ([1]; gene SYT4) was 0.9363 and the log2FoldChange ([1]; gene SYT6) was 0.6752. The log2FoldChange ([1]; gene TBX3) was −1.289, the log2FoldChange ([1]; gene TMEM132E) was 0.6361 and the log2FoldChange ([1]; gene TMOD1) was −1.407. The log2FoldChange ([1]; gene TMPRSS13) was 0.6086, the log2FoldChange ([1]; gene TOX) was 0.6437 and the log2FoldChange ([1]; gene TRPA1) was −1.599. For the same substance, the log2FoldChange ([1]; gene TXNIP) was 0.805, the log2FoldChange ([1]; gene USP27X) was 0.6946 and the log2FoldChange ([1]; gene VEPH1) was −1.26. The “purity of cardiomyocytes marked by cardiac troponin T (cTnT) expression” value (hPSC-CMs; comparable for pI:C-treated and untreated progenitors, hES and hiPS cell lines) was 80-95%, the “percentage of mlc2v+/cTnT+ hPSC-CMs” value (hPSC-CMs; day 30) was “markedly increased” and the “fraction of cells in the G2/S phase of the cell cycle” value [2] was “increased”. The “% (genes in term)” value [3, 5] was 2.3989%, the “Count (upregulated genes in term)” value [3, 5] was 18 and the “% (genes in term)” value [3, 6] was 1.0662%. The “Count (upregulated genes in term)” value [3, 6] was 8, the “% (genes in term)” value [3, 7] was 1.3327% and the “Count (upregulated genes in term)” value [3, 7] was 10. The “% (genes in term)” value [3, 8] was 1.9991%, the “Count (upregulated genes in term)” value [3, 8] was 15 and the “% (genes in term)” value [3, 9] was 4.6645%. For the same substance, the “Count (upregulated genes in term)” value [3, 9] was 35, the “% (genes in term)” value [3, 10] was 3.1985% and the “Count (upregulated genes in term)” value [3, 10] was 24. The “% (genes in term)” value ([3]; KEGG_PATHWAY hsa05218:Melanoma) was 1.3327%, the “Count (upregulated genes in term)” value ([3]; KEGG_PATHWAY hsa05218:Melanoma) was 10 and the “% (genes in term)” value [3, 11] was 4.7978%. The “Count (upregulated genes in term)” value [3, 11] was 36.
